Measured values as given in US20240201204A1, “Biomarker and Druggable Target of Neurodegeneration” (University Hospitals Cleveland Medical Center, priority 2020, published 2024).

What was measured:
[1] = molecular target: T1, GAPDH (Mus musculus, UniProt P16858); assay: S-nitrosylation of GAPDH after TBI (SNO-resin assisted capture, western blot); format: in vivo
T1 construct: from tissue; host or cells: cerebral cortex of C57BL/6J mice after TBI
Procedure: (§1) Drug preparation and administration: CGP3466B (Sigma-Aldrich, SML1941) was dissolved in DMSO and then diluted in sterile saline. The final working stock was 0.0014 mg/ml for administering the 0.014 mg/kg dose. Intraperitoneal administration of CGP3466B was initiated 15 min or 24 h after injury, and tissues were harvested 6 h (for SNO-GAPDH, SNO-SIRT1 measurement) or 2 weeks (for ac-tau measurement) later, respectively. Salsalate (AdipoGen, AG-CR1-3574) was dissolved in DMSO and then diluted in sterile PBS. The final working stocks were as follows: 2.5 mg/ml (25 mg/kg dose), 1 mg/ml (10 mg/kg dose), 0.5 mg/ml (5 mg/kg dose). Daily intraperitoneal administration of salsalate was initiated 24 hr after injury and continued throughout behavioral testing. P7C3-A20 and FK866 (Sigma-Aldrich, F8557) were first dissolved in 1 vol of DMSO, followed by addition of 4 vol of Kolliphor and vigorously vortexing. The solution was then diluted with 30 vol of filtered 5% dextrose (pH 7.0). EX527 (Selleckchem, S1541) was dissolved in 1% DMSO+30% polyethylene glycol+1% Tween 80. Daily intraperitoneal administration of P7C3-A20 was initiated 24 hr after poly-traumatic brain injury. EX527 (10 mg/kg) was administer once a day and FK866 was treated twice per day, with the first injection given at the same time as P7C3-A20 (20 mg/kg) and the second injection given 6 h later (LoCoco et al., 2017 eLife). Diflunisal was first dissolved in 1 vol of DMSO, followed by addition of 2 vol of Kolliphor and vigorously vortexing. […]
SNO-resin assisted capture (SNO-RAC): SNO-RAC was performed as described previously (Forrester, 2009). […] After two times centrifugation (20,000 g at 4° C. for 20 min), protein concentration of supernatants was determined using Coomassie protein assay (Thermo Scientific, #1856210). […] SNO-proteins were then eluted with 2× Laemmli Sample Buffer (Bio-Rad Laboratories, Inc., #1610737) with 10% beta-mercaptoethanol (Bio-Rad Laboratories, Inc., #1610710) and analyzed by SDS-PAGE and immunoblotting.

[2] = tested on: C57BL/6J mice; assay: Barnes maze task of learning and memory after TBI; format: in vivo, mouse
Procedure: (§2) Drug preparation and administration: CGP3466B (Sigma-Aldrich, SML1941) was dissolved in DMSO and then diluted in sterile saline. The final working stock was 0.0014 mg/ml for administering the 0.014 mg/kg dose. Intraperitoneal administration of CGP3466B was initiated 15 min or 24 h after injury, and tissues were harvested 6 h (for SNO-GAPDH, SNO-SIRT1 measurement) or 2 weeks (for ac-tau measurement) later, respectively. Salsalate (AdipoGen, AG-CR1-3574) was dissolved in DMSO and then diluted in sterile PBS. The final working stocks were as follows: 2.5 mg/ml (25 mg/kg dose), 1 mg/ml (10 mg/kg dose), 0.5 mg/ml (5 mg/kg dose). Daily intraperitoneal administration of salsalate was initiated 24 hr after injury and continued throughout behavioral testing. P7C3-A20 and FK866 (Sigma-Aldrich, F8557) were first dissolved in 1 vol of DMSO, followed by addition of 4 vol of Kolliphor and vigorously vortexing. The solution was then diluted with 30 vol of filtered 5% dextrose (pH 7.0). EX527 (Selleckchem, S1541) was dissolved in 1% DMSO+30% polyethylene glycol+1% Tween 80. Daily intraperitoneal administration of P7C3-A20 was initiated 24 hr after poly-traumatic brain injury. EX527 (10 mg/kg) was administer once a day and FK866 was treated twice per day, with the first injection given at the same time as P7C3-A20 (20 mg/kg) and the second injection given 6 h later (LoCoco et al., 2017 eLife). Diflunisal was first dissolved in 1 vol of DMSO, followed by addition of 2 vol of Kolliphor and vigorously vortexing. The solution was then diluted with 7 vol of saline to the appropriate concentration for administration at 25, 50, or 100 mg/kg.
The pressure in the side not containing the mouse was increased to cause membrane rupture at 20 pounds per square inch (PSI), which generates an about 1-2 ms jet airflow of 137.9+/−13.79 kPa that passes through the animal's head. The head remains untethered in a padded holder, while the body is fully shielded by a metal tube. The jet of air produced upon membrane rupture provides a concussive injury, which is followed by acceleration/deceleration of the head and then exposure to the ensuing blast wave within an enclosed space.
Barnes maze: The Barnes maze apparatus consisted of a gray circular platform (91 cm in diameter and 90 cm in height), with 20 equally spaced holes 5 cm in diameter along the perimeter (Stoelting Co.). One of these holes contained a recessed escape chamber located under the platform. Four different and equally-spaced visual cues with different shapes and colors were hung on a black circular curtain surrounding the maze. […] Total and primary latency were measured during training days, and latency to first nose pokes in escape hole and time spent in target quadrant were measured for memory test on the probe trial day. […]

[3] = patients with pediatric and adolescent congenital muscular dystrophy; cited from earlier work
[4] = Body weight during treatment after TBI; format: in vivo, mouse; details: salsalate daily IP from 24 h after TBI
Procedure: as §2, with “Intraperitoneal administration of CGP3466B was initiated 15 min or 24 h after injury, and tissues were harvested 6 h (for SNO-GAPDH, SNO-SIRT1 measurement) or 2 weeks (for ac-tau measurement) later, respectively.” left out, “P7C3-A20” left out, “[…])” for “S1541)”, “Diflunisal was first dissolved in 1 vol of DMSO, followed by addition of 2 vol of Kolliphor and vigorously vortexing.” left out

[5] = tested on: CCL2; assay: CCL2 expression in cerebral cortex after TBI (qPCR); format: in vivo, mouse; details: 25 mg/kg salsalate
Procedure: as §1, with “eLife).” for “eLife). Diflunisal was first dissolved in 1 vol of DMSO, followed by addition of 2 vol of Kolliphor and vigorously vortexing.”

T1 sequence (P16858 whole entry): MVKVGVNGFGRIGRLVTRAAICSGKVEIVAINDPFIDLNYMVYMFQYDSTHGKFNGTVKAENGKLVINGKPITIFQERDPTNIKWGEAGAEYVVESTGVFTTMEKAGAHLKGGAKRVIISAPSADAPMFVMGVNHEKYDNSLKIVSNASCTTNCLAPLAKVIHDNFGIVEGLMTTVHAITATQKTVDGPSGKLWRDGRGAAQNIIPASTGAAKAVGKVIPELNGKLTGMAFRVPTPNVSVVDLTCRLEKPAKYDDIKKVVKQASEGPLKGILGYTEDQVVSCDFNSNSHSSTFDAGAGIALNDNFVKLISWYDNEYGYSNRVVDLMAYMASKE

SMILES	S-nitrosylation of GAPDH ([1]; CGP3466B 0.014 mg/kg IP initiated 15 min after TBI, cerebral cortex harvested 6 h later, vs. TBI+Vehicle)	post-TBI cognition, learning and memory phases of Barnes maze ([2]; CGP3466B 0.014 mg/kg IP daily, initiated 24 hours after injury, vs. TBI+Vehicle)	safety in Phase 1 clinical trial [3]	S-nitrosylation of GAPDH ([1]; 25 mg/kg salsalate after TBI)	body weight [4]	post-TBI cognitive impairment (learning and memory in the Barnes maze) ([2]; low-dose salsalate daily IP from 24 h after TBI, vs. TBI+Vehicle)	average speed in behavioral testing ([2]; salsalate daily IP from 24 h after TBI)	learning, primary latency during training period of the Barnes maze ([2]; salsalate daily IP from 24 h after TBI, vs. TBI+Vehicle)	TBI-induced increase of CCL2 in cerebral cortex [5]
C#CCN(C)CC1=Cc2ccccc2Oc2ccccc21.O=C(O)/C=C\C(=O)O [CGP3466B]	inhibits S-nitrosylation of GAPDH and Sirt1	protects mice from post-TBI impaired cognition in both learning and memory phases	shown safety	–	–	–	–	–	–
O=C(Oc1ccccc1C(=O)O)c1ccccc1O [salsalate]	–	–	–	S-nitrosylation of GAPDH is not affected	Body weight was not altered	protects mice from post-TBI impairments	Average speed was not affected	improved learning as measured by primary latency	this increase is not attenuated
